Laboratory results from the supplement of paper PMC10307832.

Experiments:
Experiment in all cases: relative viability (nuclei count vs DMSO), 5 days (fraction); higher = more cells survive
Alpelisib + Olaparib = compound: Cc1nc(NC(=O)N2CCC[C@H]2C(N)=O)sc1-c1ccnc(C(C)(C)C(F)(F)F)c1 [Alpelisib] + O=C(c1cc(Cc2n[nH]c(=O)c3ccccc23)ccc1F)N1CCN(C(=O)C2CC2)CC1 [Olaparib] (partner 8 µM)
Procedure, shortened: (§1)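 Each reported value is a median over duplicate plates. It expresses relative viability: treated-well nuclei count divided by vehicle-well nuclei count. Lung cancer cell lines in 1536-well plates were dosed by pin tool a day after seeding, alone with one drug or with a fixed anchor-drug dose plus five library-drug doses (not always all listed) in √10 steps, and nuclei were counted after 5 days.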

Alpelisib + Pemetrexed = compound: Cc1nc(NC(=O)N2CCC[C@H]2C(N)=O)sc1-c1ccnc(C(C)(C)C(F)(F)F)c1 [Alpelisib] + Nc1nc2[nH]cc(CCc3ccc(C(=O)N[C@@H](CCC(=O)O)C(=O)O)cc3)c2c(=O)[nH]1 [Pemetrexed] (partner 0.2 µM)
Procedure, shortened: as §1

Vemurafenib + Vorinostat = compound: CCCS(=O)(=O)Nc1ccc(F)c(C(=O)c2c[nH]c3ncc(-c4ccc(Cl)cc4)cc23)c1F [Vemurafenib] + O=C(CCCCCCC(=O)Nc1ccccc1)NO [Vorinostat] (partner 1 µM)
Procedure, shortened: as §1

Vemurafenib + Bortezomib = compound: CCCS(=O)(=O)Nc1ccc(F)c(C(=O)c2c[nH]c3ncc(-c4ccc(Cl)cc4)cc23)c1F [Vemurafenib] + CC(C)C[C@H](NC(=O)[C@H](Cc1ccccc1)NC(=O)c1cnccn1)B(O)O [Bortezomib] (partner 0.002 µM)
Procedure, shortened: as §1

| Cell Line | relative viability (Alpelisib + Olaparib; first compound 0.04 µM) | relative viability (Alpelisib + Olaparib; first compound 0.1265 µM) | relative viability (Alpelisib + Olaparib; first compound 0.4 µM) | relative viability (Alpelisib + Olaparib; first compound 1.265 µM) | relative viability (Alpelisib + Olaparib; first compound 4 µM) | relative viability (Alpelisib + Pemetrexed; first compound 0.04 µM) | relative viability (Alpelisib + Pemetrexed; first compound 0.1265 µM) | relative viability (Alpelisib + Pemetrexed; first compound 0.4 µM) | relative viability (Alpelisib + Pemetrexed; first compound 1.265 µM) | relative viability (Alpelisib + Pemetrexed; first compound 4 µM) | relative viability (Vemurafenib + Vorinostat; first compound 0.03162 µM) | relative viability (Vemurafenib + Vorinostat; first compound 0.1 µM) | relative viability (Vemurafenib + Vorinostat; first compound 0.3162 µM) | relative viability (Vemurafenib + Vorinostat; first compound 1 µM) | relative viability (Vemurafenib + Bortezomib; first compound 0.03162 µM) | relative viability (Vemurafenib + Bortezomib; first compound 0.1 µM) | relative viability (Vemurafenib + Bortezomib; first compound 1 µM) | relative viability (Vemurafenib + Bortezomib; first compound 0.3162 µM) |
| --- | --- | --- | --- | --- | --- | --- | --- | --- | --- | --- | --- | --- | --- | --- | --- | --- | --- | --- |
| LOU-NH91 | 0.915 | 0.87 | 0.844 | 0.65 | 0.777 | 0.398 | 0.385 | 0.486 | 0.407 | 0.404 | 0.87 | 0.742 | 0.692 | 0.933 | 0.478 | 0.467 | 0.534 |  |
| RERF-LC-KJ | 0.878 | 0.894 | 0.84 | 0.655 | 0.74 | 0.504 | 0.477 | 0.456 | 0.406 | 0.464 | 0.616 | 0.659 | 0.625 | 0.709 | 1.04 | 1.06 | 1.19 | 1.06 |
| EKVX | 0.856 | 0.897 | 1.1 | 0.753 | 0.512 | 0.411 | 0.406 | 0.461 | 0.341 | 0.349 | 0.712 |  | 0.745 | 0.936 | 0.895 |  | 1.05 | 1.03 |
| NCI-H441 | 0.549 | 0.478 | 0.733 | 0.46 | 0.236 | 0.273 | 0.269 | 0.28 | 0.264 | 0.272 | 0.875 | 0.663 | 0.652 | 0.642 | 0.336 | 0.482 | 0.412 |  |
| CAL-12T | 0.771 | 0.774 | 0.767 | 0.726 | 0.745 | 1.26 | 1.14 | 1.3 | 0.93 | 1.03 | 0.673 | 0.698 | 1.04 | 0.875 | 0.835 |  | 0.974 |  |
| 201T | 0.82 | 0.81 | 0.859 | 0.774 | 0.679 | 0.328 | 0.325 | 0.361 | 0.305 | 0.269 | 0.944 | 0.845 | 0.944 | 0.986 | 1.07 | 0.998 | 1.17 | 1.15 |
| SK-LU-1 | 0.491 | 0.472 | 0.532 | 0.378 | 0.41 | 1.04 | 0.987 | 0.938 | 0.909 | 0.955 | 0.699 | 0.687 | 0.535 | 0.835 | 0.86 | 1.05 | 1.14 |  |
| LC-2-ad | 0.718 | 0.379 | 0.78 | 0.733 | 0.651 | 0.276 | 0.276 | 0.275 | 0.267 | 0.271 | 0.627 | 0.669 | 0.364 | 0.687 | 0.918 | 0.956 | 0.976 | 0.829 |
| LCLC-103H | 0.766 | 0.787 | 0.744 | 0.603 | 0.497 | 0.476 | 0.488 | 0.506 | 0.47 | 0.333 | 0.728 | 0.791 | 0.657 | 0.721 | 0.975 | 1.04 | 1.09 | 0.843 |
| NCI-H650 | 0.391 | 0.409 | 0.425 | 0.378 | 0.317 | 0.909 | 0.923 | 0.879 | 0.794 | 0.757 | 0.413 | 0.384 | 0.263 | 0.296 | 0.668 | 0.899 | 0.423 | 0.443 |
| ChaGo-K-1 | 0.435 | 0.42 | 0.426 | 0.417 | 0.342 | 0.265 | 0.257 | 0.263 | 0.263 | 0.251 | 0.743 | 0.762 | 0.605 | 0.762 | 0.934 | 0.725 | 1.08 |  |
| NCI-H2347 | 0.632 | 0.61 | 0.89 | 0.481 | 0.515 | 0.459 | 0.418 | 0.442 | 0.425 | 0.405 | 0.542 | 0.539 | 0.52 | 0.624 | 0.737 | 0.79 | 1.02 | 0.712 |
| PC-14 | 0.263 | 0.348 | 0.512 | 0.276 | 0.295 | 0.157 | 0.145 | 0.134 | 0.137 | 0.138 | 0.72 |  | 0.643 | 0.655 | 0.728 |  | 0.777 | 0.88 |
| LXF-289 | 1.04 | 1.04 | 1.12 | 0.997 | 0.942 | 0.899 | 0.866 | 0.999 | 0.904 | 0.949 | 0.708 | 0.656 | 0.805 | 0.789 | 1.01 | 0.953 | 1.1 | 0.966 |
| NCI-H596 | 0.705 | 0.701 | 0.778 | 0.491 | 0.438 | 0.44 | 0.446 | 0.503 | 0.41 | 0.42 | 0.587 | 0.742 | 0.465 | 0.497 | 1.05 | 0.896 | 1.05 | 0.802 |
| NCI-H1355 | 0.747 | 0.727 | 0.807 | 0.629 | 0.519 | 1.03 | 1.03 | 1.01 | 0.934 | 0.926 | 0.56 | 0.58 | 0.566 | 0.642 | 1.21 | 1.19 | 1.23 | 1.15 |
| NCI-H2023 | 0.436 | 0.432 | 0.479 | 0.383 | 0.263 | 0.214 | 0.221 | 0.219 | 0.181 | 0.185 | 0.531 | 0.662 | 0.57 | 0.584 | 0.869 | 0.948 | 0.943 | 0.859 |
| NCI-H2009 | 0.756 | 0.659 | 0.674 | 0.647 | 0.599 | 0.987 | 1.03 | 1.08 | 1.01 | 0.968 | 0.813 | 0.731 | 0.715 | 0.665 | 0.944 | 0.922 | 0.778 | 0.583 |
| HCC-78 | 0.694 | 0.825 | 0.857 | 0.44 | 0.521 | 0.854 | 0.941 | 0.951 | 0.854 | 0.887 | 0.425 | 0.351 | 0.79 | 0.4 | 0.433 | 0.439 | 0.506 | 0.674 |
| NCI-H322M | 0.804 | 0.82 | 0.791 | 0.671 | 0.53 | 0.561 | 0.61 | 0.588 | 0.489 | 0.578 | 0.84 |  | 1.11 | 0.829 | 1.2 |  | 1.2 | 1.43 |
